System: C2C12 skeletal muscle cells
Assay: Glycogen content assay in C2C12 myotubes
Format: cell-based
Conditions: 30 minutes
Description: The C2C12 skeletal muscle cells were cultured in Dulbecco's modified Eagle's medium (DMEM; Gibco/Invitrogen, Carlsbad, Calif.), and the human hepatocellular carcinoma cell line, Hep3B, was cultured in Roswell Park Memorial Institute medium 1640 (RPMI 1640 medium; Gibco/Invitrogen, Carlsbad, Calif.). Cells were cultured at 37° C. in the humidified incubator supplied with 5% CO2. Culture mediums were supplemented with 4.5 mgmL^−1 glucose, penicillin 100 IUmL^−1, streptomycin 100 μgmL^−1 and 10% fetal bovine serum (Gibco/Invitrogen, Carlsbad, Calif.). Only C2C12 cells were then switched to 2% horse serum for 3 days after reaching the 70% confluence. Myotubes formation was achieved after 4 days of incubation, and the cells were used for subsequent experiments. Culture mediums were replaced by serum free DMEM or RPMI for 24 h before experiments (see e.g., procedure described in Sultan et al., 2006).
C2C12 and Hep3B cells were treated with 1 nM insulin, 100 μM metformin, and the assigned concentration of borapetoside A for 30 minutes. To develop the insulin resistance state of cells, C2C12 cells were incubated with IL-6 at 20 ngmL^−1 for 1 hour. Later, the cells were treated with 1 nM insulin, 100 μM metformin, and the assigned concentration of borapetoside A for 30 minutes. After the assigned treatment, cells were washed twice with phosphate buffered saline (PBS). Glycogen content was measured as previously described, with some modifications (see e.g., Savage et al., 2008). The protein concentrations of the cell lysates were determined by using Pierce BCA Protein Assay Kit (Thermo-Scientific, Rockford, Ill.). The glycogen content of each sample was normalized by total protein.

C[C@@]12C[C@@H](c3ccoc3)OC(=O)[C@@H]1C[C@@H]1OC(=O)[C@@]3(O)[C@@H](O[C@@H]4O[C@H](CO)[C@@H](O)[C@H](O)[C@H]4O)CC[C@@H]2[C@@]13C [Borapetoside A, borapetoside A]
fold increase of glycogen (10^−6 mol/L): 1.49±0.15 fold
fold increase of glycogen (10^−7 mol/L): 1.28±0.04 fold
fold increase of glycogen (10^−8 mol/L): 1.53±0.10 fold
